Laboratory results from ChEMBL document CHEMBL1150132, “Five new discodermolide analogues from the marine sponge Discodermia species” (J Nat Prod, 2002).

Experiments:
P388 = assay: Cytotoxicity against mouse P388 cells after 48 hrs by MTT assay; format: functional, cell-based; details: P388, 48 h
A549 = assay: Cytotoxicity against human A549 cells; format: functional, cell-based

Row | SMILES | IC50 (P388) [nM] | IC50 (A549) [nM]
1 | C=C/C=C\[C@H](C)[C@H](OC(N)=O)[C@@H](C)[C@H](O)[C@@H](C)C/C(C)=C\[C@H](C)[C@@H](O)[C@@H](C)/C=C\[C@@H](O)C[C@@H]1OC(=O)[C@@H](C)[C@@H](O)[C@H]1C | 134 | 67
2 | C=C/C=C\C(C)C(OC(N)=O)C(C)C(O)C(C)/C=C(\C)C1C(C)C(O)C(C)C1/C=C/C[C@@H]1OC(=O)[C@H](C)[C@@H](O)[C@@H]1C (stereo partly specified) | 5040 | 4490
3 | C=C/C=C\[C@H](C)[C@H](OC(N)=O)[C@@H](C)[C@H](O)[C@@H](C)C/C(C)=C\[C@H](C)[C@@H](O)[C@@H](C)/C=C\[C@@H](O)C[C@@H]1OC(=O)C[C@@H](O)[C@H]1C | 172 | 120
4 | C=C/C=C\[C@H](C)[C@H](OC(N)=O)[C@@H](C)[C@H](O)[C@@H](C)C/C(C)=C\[C@H](C)[C@@H](O)[C@@H](C)/C=C\[C@@H](O)C[C@H](O)[C@H](C)[C@H](O)[C@@H](C)C(=O)OC | 65.8 | 74
5 | C=C/C=C\[C@H](C)[C@H](OC(N)=O)[C@@H](C)[C@H](O)[C@@H](C)C/C(C)=C\[C@H](C)[C@@H](O)[C@@H](C)/C=C\[C@@H](O)C[C@@H]1OC(=O)[C@H](C)[C@@H](O)[C@H]1C [DISERMOLIDE] | – | 13.5
6 | C=C/C=C\[C@H](C)[C@H](O)[C@@H](C)[C@H](O)[C@@H](C)C/C(C)=C\[C@H](C)[C@@H](O)[C@@H](C)/C=C\[C@@H](O)C[C@@H]1OC(=O)[C@H](C)[C@@H](O)[C@H]1C | 128 | 74
